Experimental findings from patent publication US20220265656A1, “COMBINATION THERAPIES WITH IRE1 SMALL MOLECULE INHIBITORS” (Cornell University, priority 2019, published 2022) are described below.

Structures are written as SMILES.

The data set concerns MDA-MB-231 tumors. Put plainly: MDA-MB-231 human triple negative breast carcinoma xenograft in athymic nude mice. In kind it is in vivo, mouse. The conditions noted are these: MDA-MB-231 xenograft mice, 24 hours after first dose and at endpoint/Day 29. How it is done: Tumor Cell Culture and Implantation: MDA-MB-231 cells were grown to mid-log phase in RPMI 1640 medium containing 10% fetal bovine serum, 2 mM glutamine, 100 units/mL sodium penicillin G, 25 μg/mL gentamicin, and 100 μg/mL streptomycin sulfate. The tumor cells were cultured in tissue culture flasks in a humidified incubator at 37° C., in an atmosphere of 5% CO2 and 95% air. The cells were harvested during exponential growth and resuspended in cold phosphate buffered saline (PBS). Each test animal was injected subcutaneously in the right flank with 5×10^6 MDA-MB-231 cells in a 0.1 mL cell suspension. Tumor growth was monitored as the average tumor size approached the target range of 100 to 150 mm^3. Tumors were measured in two dimensions using calipers, and volume was calculated using the formula:
where w=width and l=length in mm of a MDA-MB-231 tumor. […]
Endpoint and Tumor Growth Inhibition (TGI) Analysis: Tumors were measured using calipers twice a week for the study duration. […] The study ended on Day 29 and data from this day was analyzed to determine the MTV (n), the median tumor volume for the number of animals, n, on the final day (Day 29) for each group. […] Percent tumor growth inhibition (% TGI) was defined as the difference between the MTV of the designated control group (Group 1) and the MTV of the drug-treated group, expressed as a percentage of the MTV of the control; group: […]
(In general: A xenograft is tissue or cells of one species grown in another, often human tumour cells in immunodeficient mice.)

As for `COc1cc2c(C)c(CC(=O)N3CCOCC3)c(=O)oc2c(C=O)c1O` [MKC-8866], the “exposure (plasma compound levels)” value is “significantly higher with multi-dosing”.
